From patent US20060257411A1 (priority 2005, published 2006) come the findings set out here.

Assay [1] concerns MyD88-independent pathway (TRIF-TRAM, IRF-3) in peritoneal macrophages. Format: cell-based, mouse.
The next assay deals with peritoneal macrophages. Format: cell-based, mouse.
Assay [2] concerns vesicular stomatitis virus (VSV). Format: cell-based. The following applies: Heedless or Tlr4 Lps-d/Lps-d macrophages treated with interferon before infection (4 h).
Setting [3] is: macrophages from homozygous Heedless mice compared with wild-type, 4 h incubation.

Like-named read-outs stand apart in the source and are kept apart here.

On to lipid A, for which, in assay [1], the “formation of the IRF-3 phosphodimer” value is “not detected” and the “signaling via the MyD88-independent pathway (type I IFN production)” value is “prevented”. Further, the “TNF production in response to lipid A” value with peritoneal macrophages is listed as “perfectly able to produce TNF”.
On to Pam3CSK4, for which the “TNF production in response to inducer” value with peritoneal macrophages (setting [3]) was “normal”.
As for MALP-2, in the assay with peritoneal macrophages, the “TNF production in response to inducer” value is reported as “partial impairment”.
For Pam2CSK4, in the assay with peritoneal macrophages (setting [3]), the “TNF production in response to inducer” value is given as “partial impairment”.
Same read-out and setting: for poly IC the value was “normal”.
With lipoteichoic acid, the “TNF production in response to inducer” value in the assay on peritoneal macrophages is “partial impairment”.

B1: type I interferon: recombinant murine IFN-β from R&D systems used to pretreat macrophages (protein, UniProt P01575 22-182, looked up)
Interferon beta: INYKQLQLQERTNIRKCQELLEQLNGKINLTYRADFKIPMEMTEKMQKSYTAFAIQEMLQNVFLVFRNNFSSTGWNETIVVRLLDELHQQTVFLKTVLEEKQEERLTWEMSSTALHLKSYYWRVQRYLKLMKYNSYAWMVVRAEIFRNFLIIRRLTRNFQN
In the case of B1, the “lytic effect of VSV on macrophages” value in assay [2] is “prevented”.
